Measured values as given in patent US20100152297A1, “COMPOSITION FOR REGULATING CELLULAR SENESCENCE COMPRISING N-[2-(CYCLOHEXY-LOXYL)-4-NITROPHENYL]-METHANESULFONAMIDE” (priority 2007, published 2010).
“Also recorded” adds a separate entry of the source.

Legend:
human fibroblasts [1] = test: Regulation of growth rate: number of population doublings (PDs); type: cell-based; details: for effect on cellular senescence: conclusion from population doublings and SA-β-gal staining; for reduction of the maximum number of population doublings compared to DMSO: celecoxib 1 μM, nimesulide 20 μM, aspirin 1 mM, ibuprofen 20 μM, flurbiprofen 5 μM
Description: According to the literature of Boyce and Ham (1983), human fibroblasts were isolated from foreskin, and then cultured in a DMEM medium, containing 10% fetal bovine serum (Life Technology Inc., Grand Island, N.Y.), penicillin (100 units/ml) and streptomycin (100 units/ml)). […] Then, the number of the cells was calculated by trypan blue staining, and the number of population doublings (PDs) of the cells was calculated according to the following equation 1: Number of population doublings (PDs)=log(A/B)/log2 [Math Figure 1] wherein A is the number of cells harvested at one passage, and B is the initial cell number at that passage.

reactive oxygen species = test: Measurement of reactive oxygen species with DCFH-DA; type: cell-based, human; details: treated for a long period of time (65 days), P29
Description: In order to examine the effects of COX-2 inhibitors on cellular senescence, cells were cultured and treated in the same manner as in Example 2, and reactive oxygen in the cells was then measured. The cultured cells were treated with 5 μM DCFH-DA (Invitrogen, Carlsbad, Calif.), and the cells were incubated at 37 C for 45 minutes and then washed with PBS. The washed cells were collected in 1 ml PBS, and then disrupted with ultrasonic waves. The fluorescence of the cells was measured with a fluorescence spectrophotometer (Molecular Devices, Sunnyvale, Calif.), and the measured fluorescence value was corrected with the cell number.

catalase = test: Western blot, catalase expression; type: cell-based, human; details: P28 cells cultured in the presence of inhibitor
[2] = test system: SOD-2 (superoxide dismutase-2); test: Western blot, SOD-2 expression; type: cell-based, human; details: P28 cells cultured in the presence of inhibitor
[3] = test system: Gpx-1 (glutathione peroxidase-1); test: Western blot, Gpx-1 expression; type: cell-based, human; details: P28 cells cultured in the presence of inhibitor
p53 = test: Western blot, p53 expression; type: cell-based, human; details: cells cultured with inhibitor, harvested at each passage
p21 = test: Western blot, p21 expression; type: cell-based, human; details: cells cultured with inhibitor, harvested at each passage
Description: In order to examine the effects of COX-2 inhibitors on cellular senescence, cells were cultured and treated in the same manner as in Example 2, and then subjected to Western blot. The cultured cells were washed and collected in PBS, and then were disrupted in RIPA buffer (150 mM NaCl, 100 mM Tris-HCl, 1% Tween-20, 1% sodium deoxycholate and 0.1% SDS), containing 0.5 mM EDTA, 1 mM PMSF, 10 μg/ml leupeptin, 10 μg/ml aprotinin and 10 μg/ml pepstatin. The disrupted cells were centrifuged, and the supernatant was collected. Proteins in the cell extract were isolated by SDS-PAGE and transferred to nitrocellulose membranes. Then, the proteins were allowed to react with each of p53, p21, COX-1, COX-2 and caveolin-1 antibodies, and the protein-antibody complexes on the nitrocellulose membranes were allowed to react with peroxidase-conjugated anti-mouse or anti-rabbit secondary antibody. Then, the corresponding bands were visualized by chemiluminescence (Amersham Bioscience, Boston, Mass.) using an ECL kit. Herein, the antibodies for p53, p21 and COX-1 were purchased from Oncogene Science (Cambridge, Mass.), Cell Signaling Technology, Inc. (Danvers, Mass.), and Santa Cruz Biotechnology (Santa Cruz, Calif.), respectively, and the antibodies for COX-2 and cavelolin-1 were purchased from BD Bioscience (San Jose, Calif.). […]

caveolin-1 = test: Western blot, caveolin-1 expression; type: cell-based, human; details: for expression of caveolin-1: cells cultured with inhibitor, harvested at each passage; for expression of caveolin-1, short treatment: short period of time (NS-398: 4 hours)
Description: In order to examine the effects of COX-2 inhibitors on cellular senescence, cells were cultured and treated in the same manner as in Example 2, and then subjected to Western blot. The cultured cells were washed and collected in PBS, and then were disrupted in RIPA buffer (150 mM NaCl, 100 mM Tris-HCl, 1% Tween-20, 1% sodium deoxycholate and 0.1% SDS), containing 0.5 mM EDTA, 1 mM PMSF, 10 μg/ml leupeptin, 10 μg/ml aprotinin and 10 μg/ml pepstatin. The disrupted cells were centrifuged, and the supernatant was collected. Proteins in the cell extract were isolated by SDS-PAGE and transferred to nitrocellulose membranes. Then, the proteins were allowed to react with each of p53, p21, COX-1, COX-2 and caveolin-1 antibodies, and the protein-antibody complexes on the nitrocellulose membranes were allowed to react with peroxidase-conjugated anti-mouse or anti-rabbit secondary antibody. Then, the corresponding bands were visualized by chemiluminescence (Amersham Bioscience, Boston, Mass.) using an ECL kit. Herein, the antibodies for p53, p21 and COX-1 were purchased from Oncogene Science (Cambridge, Mass.), Cell Signaling Technology, Inc. (Danvers, Mass.), and Santa Cruz Biotechnology (Santa Cruz, Calif.), respectively, and the antibodies for COX-2 and cavelolin-1 were purchased from BD Bioscience (San Jose, Calif.). Also, β-actin was used as an intracellular control protein to correct the amount of the intracellular total protein.

caveolin-1 mRNA = test: RT-PCR, caveolin-1 mRNA; type: cell-based, human; details: corrected with GAPDH
Description: In order to examine the effects of COX-2 inhibitors on cellular senescence, cells were cultured and treated in the same manner as in Example 2, and then subjected to RT-PCR. […] The cavelolin-1 gene was amplified using a sense primer ([NT]) and an anti-sense primer ([NT]), and the GAPDH gene was amplified using a sense primer ([NT]) and an anti-sense primer ([NT]). The polymerase chain reaction was performed in the following conditions: 25 cycles of 30 sec at 95 t, 30 sec at 60° C. and 30 sec at 72° C. The resulting DNA products were electrophoresed on 2% agarose gel containing EtBr.

total cholesterol = test: Analysis of intracellular total cholesterol; type: cell-based, human; details: corrected with protein concentration
Description: In order to examine the effects of COX-2 inhibitors on cellular senescence, cells were cultured and treated in the same manner as in Example 2, and then analyzed for cholesterol. 2×10^6 cells were treated with a mixture of chloroform and methanol (2:1) to extract a fatty component. The amount of total cholesterol in the fatty component was measured at 570 nm using a staining method according to the manual of BioVision (Mountain View, Calif.), and the measured values were corrected with the protein concentration.

human promonocytes = details: reference 25; cited from earlier work
collagen = details: fibroblasts and hepatic stellate cells; references 24 and 36; cited from earlier work
human fibroblasts [4] = test: Senescence-associated beta-galactosidase (SA-β-gal) staining; type: cell-based; details: celecoxib 1 μM, nimesulide 20 μM, aspirin 1 mM, ibuprofen 20 μM, flurbiprofen 5 μM
Description: Herein, the senescence-associated β-galactosidase (SA-β-gal) staining was performed in the following manner according to the method of Dimri et al. (1995) (17). […] The cultured cells were seeded on a 35 mm dish, and then stabilized. Then, the cells were washed twice with PBS and fixed with 3% formaldehyde at room temperature for 5 minutes. […] During the progression of the reaction, light was blocked. […] The experiment was independently repeated twice, and the mean value and standard deviation of the measurements were calculated.

[5] = test system: human vascular endothelial cells; details: reference 16; cited from earlier work
Drosophila = details: long-term administration; reference 15; cited from earlier work

## CS(=O)(=O)Nc1ccc([N+](=O)[O-])cc1OC1CCCCC1 [NS-398, N-[2-(cyclohexyloxyl)-4-nitrophenyl]-methanesulfonamide]
Human fibroblasts [1]; PD 24 before treatment, NS-398 20 μM
  increase of the maximum number of population doublings compared to DMSO: 7 times
Human fibroblasts [1]
  effect on cellular senescence: inhibited cellular senescence; also recorded: strongly inhibits cellular senescence
Reactive oxygen species
  reduction of the level of reactive oxygen species: three
catalase
  expression of catalase: reduced
[2]
  expression of SOD-2: reduced
[3]
  expression of Gpx-1: increased
p53
  expression of p53: without inhibiting
p21
  expression of p21: inhibited
caveolin-1
  expression of caveolin-1: inhibited the expression of caveolin-1 at all passages
  expression of caveolin-1, short treatment: clearly inhibited
caveolin-1 mRNA
  mRNA level of caveolin-1: reduced
Total cholesterol
  intracellular total cholesterol concentration: reduced
Human promonocytes
  reactive oxygen species in human promonocytes: remove reactive oxygen species
collagen
  expression of collagen: increased

## CC(=O)Oc1ccccc1C(=O)O [aspirin, acetylsalicylic acid]
Human fibroblasts [1]; PD 24 before treatment
  reduction of the maximum number of population doublings compared to DMSO: 7 times
Human fibroblasts [1]
  effect on cellular senescence: promoted cellular senescence
Human fibroblasts [4]
  increase of the ratio of SA-β-gal positive cells compared to DMSO: 1.9 times
[5]
  effect on senescence in human vascular endothelial cells: inhibited senescence
Drosophila
  average lifespan of Drosophila: led to a decrease in the average lifespan of the Drosophila or had no effect on the average lifespan

## Cc1ccc(-c2cc(C(F)(F)F)nn2-c2ccc(S(N)(=O)=O)cc2)cc1 [celecoxib]
Reactive oxygen species
  increase of the level of reactive oxygen species: 1.2 times

## CC(C(=O)O)c1ccc(-c2ccccc2)c(F)c1 (stereo not shown) [flurbiprofen]
Human fibroblasts [1]; PD 24 before treatment
  reduction of the maximum number of population doublings compared to DMSO: 4 times
Human fibroblasts [1]
  effect on cellular senescence: promoted cellular senescence
Human fibroblasts [4]
  increase of the ratio of SA-β-gal positive cells compared to DMSO: 1.6 times

## CC(C)Cc1ccc(C(C)C(=O)O)cc1 (stereo not shown) [ibuprofen]
Human fibroblasts [1]; PD 24 before treatment
  reduction of the maximum number of population doublings compared to DMSO: 5 times
Human fibroblasts [1]
  effect on cellular senescence: promoted cellular senescence
Human fibroblasts [4]
  increase of the ratio of SA-β-gal positive cells compared to DMSO: 1.7 times

## COc1ccc2c(c1)c(CC(=O)O)c(C)n2C(=O)c1ccc(Cl)cc1 [indomethacin]
[5]
  effect on senescence in human vascular endothelial cells: promoted senescence
Drosophila
  average lifespan of Drosophila: led to a decrease in the average lifespan of the Drosophila or had no effect on the average lifespan

## CS(=O)(=O)Nc1ccc([N+](=O)[O-])cc1Oc1ccccc1 [nimesulide]
Human fibroblasts [1]; PD 24 before treatment
  reduction of the maximum number of population doublings compared to DMSO: two
Human fibroblasts [1]
  effect on cellular senescence: promoted cellular senescence
Human fibroblasts [4]
  increase of the ratio of SA-β-gal positive cells compared to DMSO: 1.3 times
Reactive oxygen species
  increase of the level of reactive oxygen species: 1.2 times
catalase
  expression of catalase: reduced
[2]
  expression of SOD-2: reduced
[3]
  expression of Gpx-1: reduced
p53
  expression of p53: increased
p21
  expression of p21: increased
caveolin-1
  expression of caveolin-1: increased
  expression of caveolin-1, short treatment: did not significantly change
caveolin-1 mRNA
  mRNA level of caveolin-1: increased
Total cholesterol
  intracellular total cholesterol concentration: increased
Human promonocytes
  reactive oxygen species in human promonocytes: remove reactive oxygen species

## O=C(O)c1ccccc1O [salicylic acid]
Drosophila
  average lifespan of Drosophila: led to a decrease in the average lifespan of the Drosophila or had no effect on the average lifespan
